{"source": "paper PMC9281440", "about": "“In Vivo Distribution and Therapeutic Efficacy of Radioiodine-Labeled pH-Low Insertion Peptide Variant 3 in a Mouse Model of Breast Cancer” (Molecular Imaging, 2022)", "system": "MDA-MB-231 xenografts", "assay": "Therapeutic efficacy in MDA-MB-231 xenografts", "format": "in vivo, mouse", "details": "tail vein injection on days 0 and 3 (29.6 MBq each for radioactive groups), end of treatment (26 days), mean ± SD, n = 5", "protocol": "Five-week-old female athymic BALB/c nude mice (Shanghai Slaccas Experiment Animal Corp., Shanghai, China) were used in our study. Mouse xenograft models of MDA-MB-231, 4T1, and SK-BR-3 cells were produced by the subcutaneous injection of 5 × 10^6 cells (suspended in 150 μL PBS) into the right axilla of each mouse. The mice were used in subsequent experiments when tumor diameter reached 0.5-0.9 cm. The study protocol was approved by the institutional review board and by the Experimental Animal Center of Ruijin Hospital affiliated to the School of Medicine of Shanghai Jiao Tong University.\nTwenty mice-bearing MDA-MB-231 human BC xenografts were divided into four groups of five animals. Group 1 was injected with ^131I-Var3-pHLIP in the tail vein on days 0 and 3 (29.6 MBq each day). Groups 2, 3, and 4 were injected with the same volume of Var3-pHLIP, ^131I (29.6 MBq), and saline solution, respectively. Tumor size was measured every 2 to 4 days postinjection (pi) for 26 days using a caliper. Tumor volumes (V, […]) were calculated using the formula: V = (a × b^2)/2, where a and b are tumor length and width, respectively. Relative tumor volumes were calculated as V/V0 (V0, tumor volume before treatment). The body weight of mice was also determined."}
{"sequence": "ACDDQNPWRAYLDLLFPTDTLLLDLLWK [Var3-pHLIP]", "values": [{"measurement": "relative tumor volume (V/V0)", "value": "4.17 ± 0.51"}]}
